How the values were obtained:
[1] = tested on: Stat5a/b; test: Constitutive Stat5a/b phosphorylation in K562 cells (Western blot); format: cell-based, human
Protocol: Exponentially growing K562 cells were treated with 5 μM Compound 1, Compound 2 or control for 3 h after which the cells were harvested. Cell pellets were solubilized in lysis buffer [10 mM Tris-HCl (pH 7.6), 5 mM EDTA, 50 mM sodium chloride, 30 mM sodium pyrophosphate, 50 mM sodium fluoride, 1 mM sodium orthovanadate, 1% Triton X-100, 1 mM phenylmethylsulfonyl fluoride, 5 μg/mlaprotinin, 1 μg/ml pepstatin A, and 2 μg/ml leupeptin], rotated end-over-end at 4° C. for 60 min, and insoluble material was pelleted at 12,000×g for 30 min at 4° C. The protein concentrations of clarified cell lysates were determined by simplified Bradford method (Bio-Rad Laboratories, Hercules, Calif.). Western blotting of the lysates was carried out using, as primary antibodies, the following antibodies at the following concentrations: anti-phosphotyrosine-Stat5a/b (Y694/Y699) mAb (1 μg/ml, Advantex BioReagents, Conroe, Tex.) or anti-Stat5ab mAb (1:250; BD Biosciences, San Jose, Calif.), anti-human Abl mAb (Calbiochem).
(§1) Exponentially growing K562 cells were treated with NBPP for 3 h or 6 h after which the cells were harvested. Exponentially growing K562 cells or imatinib-resistant K562 cells were treated with NBPP for 6 h or 16 h after which the cells were harvested. Cell pellets were solubilized in lysis buffer [10 mM Tris-HCl (pH 7.6), 5 mM EDTA, 50 mM sodium chloride, 30 mM sodium pyrophosphate, 50 mM sodium fluoride, 1 mM sodium orthovanadate, 1% Triton X-100, 1 mM phenylmethylsulfonyl fluoride, 5 μg/ml aprotinin, 1 μg/ml pepstatin A, and 2 μg/ml leupeptin], rotated end-over-end at 4° C. for 60 min, and insoluble material was pelleted at 12,000×g for 30 min at 4° C. The protein concentrations of clarified cell lysates were determined by simplified Bradford method (Bio-Rad Laboratories, Hercules, Calif.). […]

[2] = tested on: Stat5a/b; test: Constitutive Stat5a/b phosphorylation in imatinib-resistant KCL22R cells (Western blot); format: cell-based, human
Protocol: Exponentially growing KCL22S and KCL22R cells were treated with Compound 1 or Compound 2 at various concentrations for 3 h and 16 h (Compound 1) or 3 h, 6 h or 16 h (Compound 2) after which the cells were harvested. Cell pellets were solubilized in lysis buffer [10 mM Tris-HCl (pH 7.6), 5 mM EDTA, 50 mM sodium chloride, 30 mM sodium pyrophosphate, 50 mM sodium fluoride, 1 mM sodium orthovanadate, 1% Triton X-100, 1 mM phenylmethylsulfonyl fluoride, 5 μg/ml aprotinin, 1 μg/ml pepstatin A, and 2 μg/ml leupeptin], rotated end-over-end at 4° C. for 60 min, and insoluble material was pelleted at 12,000×g for 30 min at 4° C. The protein concentrations of clarified cell lysates were determined by simplified Bradford method (Bio-Rad Laboratories, Hercules, Calif.). Western blotting of the lysates was carried out using, as primary antibodies, the following antibodies at the following concentrations: anti-phosphotyrosine-Stat5a/b (Y694/Y699) mAb (1 μg/ml, Advantex BioReagents, Conroe, Tex.), anti-Stat5ab mAb (1:250; BD Biosciences, San Jose, Calif.) or anti-actin pAb (Sigma). Anti-actin was included as a control.
as §1

[3] = tested on: KCL22 human chronic myeloid leukemia cells; test: Cell viability, MTS assay, KCL22 (imatinib-sensitive) chronic myeloid leukemia cells; format: cell-based; settings: KCL22 (KCL22S), 72 h, 3.1, 6.3, 12.5, 25 and 50 μM, vs control compound C5
Protocol: (§2) Exponentially growing KCL22 human chronic myeloid leukemia cells were treated with Compound 1, Compound 2 or the control compound C5 for 72 h at 3.1, 6.3. 12.5, 25 and 50 μM concentrations. The cell viability was assessed by MTS (3-(4,5-dimethylthiazolyl-2)-2,5-diphenyl-tetrazolium bromide) metabolic activity assay (CellTiter 96® AQueous Assay kit).
as §2, with “CWR22Rv1 prostate cancer cells, K562 leukemia cells and imatinib-sensitive KCL22S and imatinib-resistant KCL22R” for “KCL22 human”, “NBPP” for “Compound 1, Compound 2”

[4] = tested on: KCL22R imatinib-resistant human chronic myeloid leukemia cells; test: Cell viability, MTS assay, KCL22R imatinib-resistant chronic myeloid leukemia cells; format: cell-based; settings: 72 h, 3.1, 6.3, 12.5, 25 and 50 μM, vs control compound C5
Protocol: as §2, with “KCL22R imatinib-resistant” for “KCL22”
as §2, with “CWR22Rv1 prostate cancer cells, K562 leukemia cells and imatinib-sensitive KCL22S and imatinib-resistant KCL22R” for “KCL22 human”, “NBPP” for “Compound 1, Compound 2”

[5] = KCL22R, various concentrations, 3 h and 16 h (Compound 1) or 3 h, 6 h or 16 h (Compound 2)

| Compound | effect on phosphorylation of Stat5 ([1]; K562, 5 μM, 3 h) | effect on phosphorylation of Stat5 [2, 5] | number of viable cells [3] | number of viable cells [4] | effect on phosphorylation of Stat5 ([1]; K562, indicated concentrations, 3 or 6 hours) | effect on phosphorylation of Stat5 ([2]; KCL22R imatinib-resistant, 6 h or 16 h) |
| --- | --- | --- | --- | --- | --- | --- |
| OC[C@H]1O[C@@H](n2cnc3c(NNc4ccccc4)ncnc32)[C@H](O)[C@@H]1O [Compound 2, (2R,3S,4R,5R)-2-(hydroxymethyl)-5-(6-(2-phenylhydrazinyl)-9H-purin-9-yl)tetrahydrofuran-3,4-diol] | block phosphorylation of Stat5 | block phosphorylation of Stat5 | decreased the number of viable leukemic cancer cells compared to the control compound | decreased the number of viable leukemic cancer cells compared to the control compound |  |  |
| OC[C@H]1O[C@@H](n2cnc3c(N4CCc5ccccc5C4)ncnc32)[C@H](O)[C@@H]1O [Compound 1, (2R,3R,4S,5R)-2-(6-(3,4-Dihydroisoquinolin-2(1H)-yl)-9H-purin-9-yl)-5-(hydroxymethyl)tetrahydrofuran-3,4-diol] | block phosphorylation of Stat5 | block phosphorylation of Stat5 | decreased the number of viable leukemic cancer cells compared to the control compound | decreased the number of viable leukemic cancer cells compared to the control compound |  |  |
| OC[C@H]1O[C@@H](n2ccc3c(NCc4ccccc4)ncnc32)[C@H](O)[C@@H]1O [NBPP, N-(phenylmethyl)-7-β-D-ribofuranosyl-7H-pyrrolo[2,3-d]pyrimidin-4-amine] |  |  | decreased the number of viable KCL22S cells | decreased the number of viable KCL22R cells | inhibited phosphorylation of Stat5 | inhibits phosphorylation of Stat5 |
